Our source for the cell viability values is the supplement of paper PMC11451515.

This experiment deals with NOMO1. Description: cell viability relative to DMSO control; higher = less cytotoxic. To be noted: 48 h. The method in brief: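 Before seeding, each leukemia line was adapted for at least four passages in each medium. NOMO1 or SEM cells (500 cells/well) and P12-Ichikawa cells (1000 cells/well) went into 1536-well plates at 5 μl, then received library compounds in DMSO by pin dosing across 11 threefold concentrations, 47 μM to 0.79 nM. Readout was CellTiter-Glo One luminescence after 48 h at 37°C, and viability is given as a per-plate percentage of DMSO wells, with cell-free wells as background.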

The mark [1] stands for this setting: RPMI 5 mM glucose + 10% dialyzed FBS, 0.000781 µM.
Setting [2] is: RPMI 5 mM glucose + 10% dialyzed FBS, 0.00234 µM.
Where [3] appears, read: RPMI 5 mM glucose + 10% dialyzed FBS, 0.00702 µM.
The mark [4] stands for this setting: RPMI 5 mM glucose + 10% dialyzed FBS, 0.0211 µM.
[5] abbreviates: RPMI 5 mM glucose + 10% dialyzed FBS, 0.0632 µM.
The mark [6] stands for this setting: RPMI 5 mM glucose + 10% dialyzed FBS, 0.19 µM.
Setting [7] is: RPMI 5 mM glucose + 10% dialyzed FBS, 0.569 µM.
The mark [8] stands for this setting: RPMI 5 mM glucose + 10% dialyzed FBS, 1.71 µM.
Setting [9] is: RPMI 5 mM glucose + 10% dialyzed FBS, 5.12 µM.
Where [10] appears, read: RPMI 5 mM glucose + 10% dialyzed FBS, 15.4 µM.
Setting [11] is: RPMI 5 mM glucose + 10% dialyzed FBS, 46.1 µM.
Setting [12] is: HPLM + 10% dialyzed FBS, 0.000781 µM.
Where [13] appears, read: HPLM + 10% dialyzed FBS, 0.00234 µM.
Setting [14] is: HPLM + 10% dialyzed FBS, 0.00702 µM.
Where [15] appears, read: HPLM + 10% dialyzed FBS, 0.0211 µM.
[16] abbreviates: HPLM + 10% dialyzed FBS, 0.0632 µM.
The mark [17] stands for this setting: HPLM + 10% dialyzed FBS, 0.19 µM.
The mark [18] stands for this setting: HPLM + 10% dialyzed FBS, 0.569 µM.
Where [19] appears, read: HPLM + 10% dialyzed FBS, 1.71 µM.
The mark [20] stands for this setting: HPLM + 10% dialyzed FBS, 5.12 µM.
Setting [21] is: HPLM + 10% dialyzed FBS, 15.4 µM.
Where [22] appears, read: HPLM + 10% dialyzed FBS, 46.1 µM.
[23] abbreviates: RPMI 5 mM glucose + 10% FBS, 0.000781 µM.
The mark [24] stands for this setting: RPMI 5 mM glucose + 10% FBS, 0.00234 µM.
Where [25] appears, read: RPMI 5 mM glucose + 10% FBS, 0.00702 µM.
The mark [26] stands for this setting: RPMI 5 mM glucose + 10% FBS, 0.0211 µM.
Setting [27] is: RPMI 5 mM glucose + 10% FBS, 0.0632 µM.
Where [28] appears, read: RPMI 5 mM glucose + 10% FBS, 0.19 µM.
Setting [29] is: RPMI 5 mM glucose + 10% FBS, 0.569 µM.
Where [30] appears, read: RPMI 5 mM glucose + 10% FBS, 1.71 µM.
[31] abbreviates: RPMI 5 mM glucose + 10% FBS, 5.12 µM.
Where [32] appears, read: RPMI 5 mM glucose + 10% FBS, 15.4 µM.
Where [33] appears, read: RPMI 5 mM glucose + 10% FBS, 46.1 µM.

The cell viability is a read-out of living cells in per cent, often relative to untreated cells. `CC(C)c1onc(-c2c(Cl)cccc2Cl)c1COc1ccc(/C=C/c2cccc(C(=O)O)c2)c(Cl)c1`: the cell viability amounted to 128% under setting [1]; 124% under setting [2]; 124% under setting [3]; 139% under setting [4]; 114% under setting [5]; 133% under setting [6]. Further, the cell viability turned out to be 129% under setting [7]; 132% under setting [8]; 128% under setting [9]; 109% under setting [10]; 107% under setting [11].

As for `CC(C(C)N1CC(=O)NC(=O)C1)N1CC(=O)NC(=O)C1` (stereo unspecified), the cell viability amounted to 110% under setting [1]; 121% under setting [2]; 139% under setting [3]; 133% under setting [4]; 127% under setting [5]; 123% under setting [6]. In addition, the cell viability was determined as 139% under setting [7]; 135% under setting [8]; 130% under setting [9]; 124% under setting [10]; 106% under setting [11].

Take `NC(=O)c1cnccn1`: the cell viability is, setting by setting: under setting [12], 105%; under setting [13], 120%; under setting [14], 147%; under setting [15], 133%; under setting [16], 140%; under setting [17], 140%. Further, the cell viability was found to be 143% under setting [18]; 141% under setting [19]; 145% under setting [20]; 126% under setting [21]; 148% under setting [22].

Consider `O=C(O)c1ccc(O)c2ncc(N3CCOCC3)cc12`, for which the cell viability was found to be 90.9% under setting [12]; 108% under setting [13]; 99.9% under setting [14]; 103% under setting [15]; 99.3% under setting [16]; 101% under setting [17]. Moreover, the cell viability is, setting by setting: under setting [18], 109%; under setting [19], 105%; under setting [20], 97.2%; under setting [21], 83.6%; under setting [22], 18.9%; under setting [23], 93.9%. The cell viability was found to be 91.1% under setting [24]; 92.7% under setting [25]; 92.1% under setting [26]; 89.4% under setting [27]; 86.3% under setting [28]; 87.5% under setting [29]. The cell viability is 86.2% under setting [30]; 85.4% under setting [31]; 79.3% under setting [32]; 73.8% under setting [33]; 98.1% under setting [1]; 101% under setting [2]. In addition, the cell viability under setting [3] was 111%; the cell viability under setting [4] was determined as 104%; the cell viability under setting [5] is 107%; the cell viability under setting [6] was found to be 94.2%; the cell viability under setting [7] was 126%; the cell viability under setting [8] worked out at 102%. Moreover, the cell viability under setting [9] was 91.2%, the cell viability under setting [10] came to 104% and the cell viability under setting [11] was found to be 81.5%.

Take `Nc1nc(F)nc2c1ncn2[C@@H]1O[C@H](COP(=O)(O)O)[C@@H](O)[C@@H]1O`: the cell viability stood at 121% under setting [12]; 123% under setting [13]; 135% under setting [14]; 134% under setting [15]; 123% under setting [16]; 125% under setting [17]. Besides, the cell viability was determined as 129% under setting [18]; 126% under setting [19]; 109% under setting [20]; 47.3% under setting [21]; 21% under setting [22]; 112% under setting [23]. Also, the cell viability by setting is: under setting [24], 112%; under setting [25], 130%; under setting [26], 123%; under setting [27], 125%; under setting [28], 115%; under setting [29], 133%. Further, the cell viability reads like this: under setting [30], 118%; under setting [31], 117%; under setting [32], 109%; under setting [33], 38%.

Consider `N[S+](=O)([O-])c1ccc(Nc2nc(OCC3CCCCC3)c3[nH]cnc3n2)cc1`, for which the cell viability is, setting by setting: under setting [12], 111%; under setting [13], 131%; under setting [14], 117%; under setting [15], 116%; under setting [16], 119%; under setting [17], 73.7%. The cell viability is, setting by setting: under setting [18], 38.2%; under setting [19], 41.3%; under setting [20], 58.2%; under setting [21], 56.1%; under setting [22], 42.9%; under setting [23], 97.1%. In addition, the cell viability runs as follows: under setting [24], 106%; under setting [25], 109%; under setting [26], 107%; under setting [27], 103%; under setting [28], 103%; under setting [29], 66.9%. For the same molecule, the cell viability turned out to be 28.4% under setting [30]; 24.3% under setting [31]; 31.4% under setting [32]; 47.1% under setting [33]; 119% under setting [1]; 115% under setting [2]. The cell viability was 118% under setting [3]; 117% under setting [4]; 104% under setting [5]; 116% under setting [6]; 78.2% under setting [7]; 35.9% under setting [8]. Also, the cell viability amounted to 35% under setting [9], 32% under setting [10] and 67.1% under setting [11].
